Test system: nuclear protein kinase C-δ
Experiment: confocal-based high-content screening measuring the quantity of nuclear protein kinase C-δ in GR10 cells
Format: cell-based
Settings: 24 hours treatment, fluorescence intensity (FIG. 3)
Source text: Please refer to FIG. 1. […] To investigate the growth-inhibiting effect of the nuclear protein kinase C-δ inhibitor of the present disclosure on the non-small-cell lung cancer cells resistant to the epidermal growth factor receptor-tyrosine kinase inhibitor, the present experimental example utilizes the screening system shown in FIG. 1 to measure whether the nuclear protein kinase C-δ inhibitor of the present disclosure can inhibit the production of nuclear protein kinase C-δ in the cancer cells.
In the present experimental example, gefitinib-resistant non-small-cell lung cancer cells (gefitinib-resistant 10 cells, hereinafter “GR10 cells”) are used as the cell model. In Example 1 to Example 4, GR10 cells are respectively treated with nintedanib esylate (hereinafter “Nin”), ponatinib (hereinafter “Pon”), regorafenib (hereinafter “Reg”) or cobimetinib (hereinafter “Cob”) for 24 hours, and the quantity of nuclear protein kinase C-δ within the GR10 cells is determined by confocal-based high-content image analysis. On the other hand, the present experimental example further includes Comparative Example 1 and Comparative Example 2. […]
Please refer to FIG. 2A to FIG. 2F and FIG. 3. […] FIG. 3 is a comparative diagram of fluorescence intensity of the GR10 cells after treatment of Example 1 to Example 4, Comparative Example 1 and Comparative Example 2. […]

Q: How did the “concentration at which a great ability to inhibit nuclear protein kinase C-δ is performed” value turn out when `Cc1ccc(C(=O)Nc2ccc(CN3CCN(C)CC3)c(C(F)(F)F)c2)cc1C#Cc1cnc2cccnn12` [Pon, ponatinib] was run?
A: greater than 0.1 μM
